Experimental data reported in patent US20190300857A1, “UNDIFFERENTIATED STEM CELL-REMOVING AGENT, AND METHOD FOR REMOVING UNDIFFERENTIATED STEM CELLS” (KEIO UNIVERSITY, priority 2016, published 2019).

Columns and labels:
Type in all cases: cell-based
[1] = tested on: human iPS cell line (253G4); assay: Culture of human iPS cell line with Orlistat with or without palmitic acid, LIVE/DEAD Assay; details: Orlistat 0, 2, 6, 8 μM, 72 hours, FIGS. 13 to 14
Procedure: Orlistat (manufactured by Sigma, 04139) was added into StemFit medium (manufactured by AJINOMOTO) or mTeSR1 (manufactured by Stem Cell Technologies) so that each of a final concentration became concentrations as shown in FIG. 13 (2 μM, 6 μM, and 8 μM). Therefore a culture medium according to one embodiment of the present invention was obtained. Media obtained by adding palmitic acid (final concentration 50 μM), carnitine (final concentration 0.5 mM), and BSA (final concentration 8.3 μM) to each of the culture medium (0 μM) not containing Orlistat and the culture media containing Orlistat at the above final concentrations; and media obtained by adding only carnitine (final concentration 0.5 mM) and BSA (final concentration 8.3 μM) thereto were prepared. The human iPS cell line (253G4) was cultured for 72 hours in each of the above-mentioned media. After 72 hours of culture, live cells were detected with LIVE/DEAD Assay (L3224, manufactured by Thermo Fisher Scientific).

[2] = tested on: undifferentiated stem cells expressing OCT4 in cell mixture of cardiomyocytes derived from human iPS cells and human iPS cells; assay: Culture of cell mixture of iPS-derived cardiomyocytes and iPS cells in Orlistat-containing medium, OCT4 immunostaining; details: Orlistat 10 μM (Orlistat(+)); 72 hours; StemFit or mTeSR1; FIGS. 7 to 8
Procedure: A cell mixture in a state in which purified and refined cardiomyocytes induced from human iPS cells and human iPS cells coexisted was prepared according to the procedure described above. In the cell mixture, immunostaining against OCT4 was performed. The cell mixture was cultured for 72 hours in StemFit medium (manufactured by AJINOMOTO) or mTeSR1 (manufactured by Stem Cell Technologies) containing Orlistat at a final concentration of 10 μM (Orlistat(+)). As a control, culture was carried out in the same manner in StemFit medium (manufactured by AJINOMOTO) or mTeSR1 (manufactured by Stem Cell Technologies) not containing Orlistat (Orlistat(−)). After culturing for 72 hours, cells expressing OCT4 were detected by immunostaining. In addition, the results of DAPI staining are also shown together. The results of three replicate tests in which the number of colonies of cells expressing Oct4 was quantified based on the results are shown in FIG. 8.

[3] = tested on: 253G4: human induced pluripotent stem cell (human iPS cell) line; assay: Culture of undifferentiated stem cell line in Orlistat-containing medium, ALP staining of living cells; details: Orlistat 0, 2, 4, 6, 8, 10 μM, 72 hours, StemFit or mTeSR1, FIG. 3
Procedure: (§1) Orlistat (manufactured by Sigma, 04139) was added into StemFit medium (manufactured by AJINOMOTO) or mTeSR1 (manufactured by Stem Cell Technologies) so that each of a final concentration became concentrations as shown in FIG. 3 (2 μM, 4 μM, 6 μM, 8 μM, and 10 μM). Therefore a culture medium according to one embodiment of the present invention was obtained. The following three cell lines were cultured for 72 hours in each of a culture medium not containing Orlistat (0 μM) and the culture media containing Orlistat at each of the above final concentrations. • 253G4: human induced pluripotent stem cell (human iPS cell) line • Ffl14: human induced pluripotent stem cell (human iPS cell) line • H9: human embryonic stem cell (human ES cell) line In regard to the activity of alkaline phosphatase (ALP) that the cells have, after 72 hours of culture, AP staining was performed by color development with […] (registered trademark) alkaline phosphatase staining kit (Sigma 86-R), and cells stained red were confirmed as living cells.

[4] = tested on: H9: human embryonic stem cell (human ES cell) line; assay: as above; details: Orlistat 0, 2, 4, 6, 8, 10 μM, 72 hours, StemFit or mTeSR1, FIG. 3
Procedure: as §1

[5] = tested on: Ffl14: human induced pluripotent stem cell (human iPS cell) line; assay: as above; details: Orlistat 0, 2, 4, 6, 8, 10 μM, 72 hours, StemFit or mTeSR1, FIG. 3
Procedure: as §1

## CCCCCCCCCCC[C@@H](C[C@@H]1OC(=O)[C@H]1CCCCCC)OC(=O)[C@H](CC(C)C)NC=O [Orlistat, N-formyl-L-leucine-(1S)-1-[[(2S,3S)-3-hexyl-4-oxo-2-oxetanyl]methyl]dodecyl ester]
[1]; culture medium (BSA): only carnitine 0.5 mM and BSA 8.3 μM added
  cell death of human iPS cells (LIVE/DEAD Assay): cell death of human iPS cells was induced in an Orlistat concentration-dependent manner
[1]; culture medium (PA-BSA): palmitic acid 50 μM, carnitine 0.5 mM and BSA 8.3 μM added
  cell death of human iPS cells (LIVE/DEAD Assay): cell death of human iPS cells was suppressed
[2]
  residual undifferentiated stem cells expressing OCT4: no residual undifferentiated stem cells expressing OCT4 were detected
[3]
  cell death of undifferentiated stem cells (ALP staining): cell death of each undifferentiated stem cell was induced in an Orlistat concentration-dependent manner
[4]
  cell death of undifferentiated stem cells (ALP staining): cell death of each undifferentiated stem cell was induced in an Orlistat concentration-dependent manner
[5]
  cell death of undifferentiated stem cells (ALP staining): cell death of each undifferentiated stem cell was induced in an Orlistat concentration-dependent manner
